In paper PMC4490784, “Compensatory induction of MYC expression by sustained CDK9 inhibition via a BRD4-dependent mechanism” (eLife, 2015):

Key:
Test in all cases: KINOMEscan binding assay
[1] = target: T1, ACVR1 (Homo sapiens, UniProt Q04771); details: read-out: % Retention on Solid Support
T1 construct: purchased DiscoveRx KINOMEscan
Description: (§1) As there are no commercial or in-house kinase assays available for CDK3, CDK5, CDK11 and CDK13, the inhibitory abilities of i-CDK9 toward these CDKs were thus evaluated in the DiscoveRx KINOMEscan assay, which is based on a proprietary active site-directed competition-binding platform ([Fabian et al., 2005]).
(§2) The inhibitory activity of i-CDK9 for CDK1-CycB (Upstate/Millipore), CDK2-CycA (Invitrogen), CDK4-CycD1 (Novartis), CDK7-CycH-MAT1 (Invitrogen), and CDK9-CycT1 (Invitrogen) was assessed in the AlphaScreen (PerkinElmer, Inc)-based kinase assay developed at Novartis. Briefly, each CDK–cyclin pair was pre-incubated with i-CDK9 for 15 min, followed by addition of kinase substrates (ELK for CDK1 and CDK2, RB for CDK4, and CDK7tide for CDK7 and CDK9). The mixture was incubated at room temperature for additional 4–5 hr. The reaction was stopped and read on Envision (PerkinElmer, Inc). Selectivity against a large panel of over 400 kinases was evaluated using the KINOMEscan platform (DiscoveRx, CA) employing a proprietary active site-directed competition binding assay ([Fabian et al., 2005]). The assay was conducted at two different concentrations of i-CDK9 (1 and 10 µM) by DiscoveRx.

[2] = target: T2, CDK8 (Homo sapiens, UniProt P49336)
T2 construct: purchased DiscoveRx KINOMEscan
Description: as §1, §2

[3] = target: T3, MAST1 (Homo sapiens, UniProt Q9Y2H9); details: read-out: % Retention on Solid Support
T3 construct: purchased DiscoveRx KINOMEscan
Description: as §1, §2

[4] = target: T4, PAK7 (Homo sapiens, UniProt Q9P286); details: read-out: % Retention on Solid Support
T4 construct: purchased DiscoveRx KINOMEscan
Description: as §1, §2

[5] = target: T5, HPK1 (Homo sapiens, UniProt Q92918); details: read-out: % Retention on Solid Support
T5 construct: purchased DiscoveRx KINOMEscan
Description: as §1, §2

[6] = target: T6, YANK1 (Homo sapiens, UniProt Q8WU08); details: 1 µM i-CDK9; read-out: % Retention on Solid Support
T6 construct: purchased DiscoveRx KINOMEscan
Description: as §1, §2

[7] = target: T7, KIT(A829P) (Homo sapiens, UniProt P10721, A829P); details: 1 µM i-CDK9; read-out: % Retention on Solid Support
T7 construct: purchased DiscoveRx KINOMEscan
Description: as §1, §2

[8] = target: T8, SRPK2 (Homo sapiens, UniProt P78362); details: read-out: % Retention on Solid Support
T8 construct: purchased DiscoveRx KINOMEscan
Description: as §1, §2

[9] = target: T9, RET(M918T) (Homo sapiens, UniProt P07949, M918T); details: read-out: % Retention on Solid Support
T9 construct: purchased DiscoveRx KINOMEscan
Description: as §1, §2

[10] = target: T10, LIMK2 (Homo sapiens, UniProt P53671); details: read-out: % Retention on Solid Support
T10 construct: purchased DiscoveRx KINOMEscan
Description: as §1, §2

[11] = target: T11, PRKCD (Homo sapiens, UniProt Q05655); details: read-out: % Retention on Solid Support
T11 construct: purchased DiscoveRx KINOMEscan
Description: as §1, §2

[12] = target: T12, GRK7 (Homo sapiens, UniProt Q8WTQ7); details: read-out: % Retention on Solid Support
T12 construct: purchased DiscoveRx KINOMEscan
Description: as §1, §2

[13] = target: T13, MYO3A (Homo sapiens, UniProt Q8NEV4); details: read-out: % Retention on Solid Support
T13 construct: purchased DiscoveRx KINOMEscan
Description: as §1, §2

[14] = target: T14, AURKA (Homo sapiens, UniProt O14965); details: read-out: % Retention on Solid Support
T14 construct: purchased DiscoveRx KINOMEscan
T14 sequence (O14965 1-403): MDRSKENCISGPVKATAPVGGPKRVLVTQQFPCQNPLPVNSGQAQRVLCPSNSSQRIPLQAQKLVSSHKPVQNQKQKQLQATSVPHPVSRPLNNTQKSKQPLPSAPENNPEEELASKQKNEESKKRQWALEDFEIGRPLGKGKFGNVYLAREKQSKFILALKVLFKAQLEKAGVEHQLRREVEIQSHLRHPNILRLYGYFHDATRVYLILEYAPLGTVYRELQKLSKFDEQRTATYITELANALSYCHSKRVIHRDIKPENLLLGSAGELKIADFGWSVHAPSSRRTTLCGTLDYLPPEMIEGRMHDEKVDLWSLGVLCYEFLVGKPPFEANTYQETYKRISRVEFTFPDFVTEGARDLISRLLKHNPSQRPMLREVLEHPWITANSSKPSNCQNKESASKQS
Description: as §1, §2

[15] = target: T15, PIK3CD (Homo sapiens, UniProt O00329); details: read-out: % Retention on Solid Support
T15 construct: purchased DiscoveRx KINOMEscan
Description: as §1, §2

[16] = target: T16, PFTAIRE2 (Homo sapiens, UniProt Q96Q40); details: read-out: % Retention on Solid Support
T16 construct: purchased DiscoveRx KINOMEscan
Description: as §1, §2

[17] = target: T17, KIT(D816H) (Homo sapiens, UniProt P10721, D816H); details: 1 µM i-CDK9; read-out: % Retention on Solid Support
T17 construct: purchased DiscoveRx KINOMEscan
Description: as §1, §2

[18] = target: T18, MKNK2 (Homo sapiens, UniProt Q9HBH9); details: read-out: % Retention on Solid Support
T18 construct: purchased DiscoveRx KINOMEscan
Description: as §1, §2

[19] = target: T19, TYK2(JH2domain-pseudokinase) (Homo sapiens, UniProt P29597)
T19 construct: TYK2(JH2domain-pseudokinase); purchased DiscoveRx KINOMEscan
Description: as §1, §2

[20] = target: T20, OSR1 (Homo sapiens, UniProt O95747); details: read-out: % Retention on Solid Support
T20 construct: purchased DiscoveRx KINOMEscan
Description: as §1, §2

[21] = target: T21, KIT(V559D) (Homo sapiens, UniProt P10721, V559D); details: read-out: % Retention on Solid Support
T21 construct: purchased DiscoveRx KINOMEscan
Description: as §1, §2

[22] = target: T22, ULK1 (Homo sapiens, UniProt O75385)
T22 construct: purchased DiscoveRx KINOMEscan
Description: as §1, §2

[23] = target: T23, PIM2 (Homo sapiens, UniProt Q9P1W9); details: read-out: % Retention on Solid Support
T23 construct: purchased DiscoveRx KINOMEscan
Description: as §1, §2

[24] = target: T24, ABL2 (Homo sapiens, UniProt P42684); details: read-out: % Retention on Solid Support
T24 construct: purchased DiscoveRx KINOMEscan
Description: as §1, §2

[25] = target: T25, NEK7 (Homo sapiens, UniProt Q8TDX7); details: read-out: % Retention on Solid Support
T25 construct: purchased DiscoveRx KINOMEscan
Description: as §1, §2

T5 sequence (Q92918 whole entry): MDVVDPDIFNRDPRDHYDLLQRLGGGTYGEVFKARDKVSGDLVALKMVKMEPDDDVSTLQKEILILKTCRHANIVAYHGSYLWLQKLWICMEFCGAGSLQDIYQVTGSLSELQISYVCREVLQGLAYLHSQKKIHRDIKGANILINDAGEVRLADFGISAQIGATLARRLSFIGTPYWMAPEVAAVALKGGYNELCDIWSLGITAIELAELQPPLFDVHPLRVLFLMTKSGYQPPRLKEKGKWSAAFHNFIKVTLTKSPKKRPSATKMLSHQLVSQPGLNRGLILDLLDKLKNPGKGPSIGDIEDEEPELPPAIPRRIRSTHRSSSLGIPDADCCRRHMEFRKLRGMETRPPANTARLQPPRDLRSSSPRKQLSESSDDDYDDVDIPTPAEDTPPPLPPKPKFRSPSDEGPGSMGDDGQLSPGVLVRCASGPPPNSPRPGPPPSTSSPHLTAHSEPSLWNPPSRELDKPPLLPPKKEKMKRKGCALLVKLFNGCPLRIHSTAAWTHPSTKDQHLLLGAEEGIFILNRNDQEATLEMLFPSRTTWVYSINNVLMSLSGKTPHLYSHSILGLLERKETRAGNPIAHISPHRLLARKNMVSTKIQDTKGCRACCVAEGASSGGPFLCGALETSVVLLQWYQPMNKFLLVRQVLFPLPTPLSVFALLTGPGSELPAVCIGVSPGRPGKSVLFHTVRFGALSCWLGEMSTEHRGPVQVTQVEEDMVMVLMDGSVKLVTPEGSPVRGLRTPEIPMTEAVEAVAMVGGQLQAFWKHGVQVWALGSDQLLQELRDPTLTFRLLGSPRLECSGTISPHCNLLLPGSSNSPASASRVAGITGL
T24 sequence (P42684 whole entry): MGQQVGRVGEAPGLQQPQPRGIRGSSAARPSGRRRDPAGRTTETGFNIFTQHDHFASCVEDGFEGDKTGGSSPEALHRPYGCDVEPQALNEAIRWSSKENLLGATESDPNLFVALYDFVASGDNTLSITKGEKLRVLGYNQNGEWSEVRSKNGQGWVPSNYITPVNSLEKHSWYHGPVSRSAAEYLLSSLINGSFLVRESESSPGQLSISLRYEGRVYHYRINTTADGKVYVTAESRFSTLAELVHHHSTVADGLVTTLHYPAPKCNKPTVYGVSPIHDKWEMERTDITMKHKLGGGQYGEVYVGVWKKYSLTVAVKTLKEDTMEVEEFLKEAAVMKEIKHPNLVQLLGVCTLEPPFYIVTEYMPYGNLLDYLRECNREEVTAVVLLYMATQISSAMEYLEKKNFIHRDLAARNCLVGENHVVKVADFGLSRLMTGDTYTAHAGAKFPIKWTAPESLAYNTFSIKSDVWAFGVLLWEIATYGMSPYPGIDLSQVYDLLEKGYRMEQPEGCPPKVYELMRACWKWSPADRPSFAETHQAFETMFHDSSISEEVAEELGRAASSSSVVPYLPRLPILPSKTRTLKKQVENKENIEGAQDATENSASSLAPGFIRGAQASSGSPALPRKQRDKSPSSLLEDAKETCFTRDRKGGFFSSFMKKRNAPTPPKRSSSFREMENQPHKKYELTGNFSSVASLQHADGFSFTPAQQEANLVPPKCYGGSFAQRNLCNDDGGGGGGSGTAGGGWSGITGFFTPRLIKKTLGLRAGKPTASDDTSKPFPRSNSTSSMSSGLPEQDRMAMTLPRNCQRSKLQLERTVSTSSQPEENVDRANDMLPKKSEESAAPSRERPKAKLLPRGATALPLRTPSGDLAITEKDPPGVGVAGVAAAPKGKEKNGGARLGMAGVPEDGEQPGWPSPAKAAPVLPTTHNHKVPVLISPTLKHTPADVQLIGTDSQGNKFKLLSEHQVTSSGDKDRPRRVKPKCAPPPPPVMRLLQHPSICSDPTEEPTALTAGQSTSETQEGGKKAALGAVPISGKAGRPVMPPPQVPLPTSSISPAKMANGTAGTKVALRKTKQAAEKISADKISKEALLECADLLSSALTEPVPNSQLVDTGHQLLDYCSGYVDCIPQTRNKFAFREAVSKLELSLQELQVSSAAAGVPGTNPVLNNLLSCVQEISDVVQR
T18 sequence (Q9HBH9 whole entry): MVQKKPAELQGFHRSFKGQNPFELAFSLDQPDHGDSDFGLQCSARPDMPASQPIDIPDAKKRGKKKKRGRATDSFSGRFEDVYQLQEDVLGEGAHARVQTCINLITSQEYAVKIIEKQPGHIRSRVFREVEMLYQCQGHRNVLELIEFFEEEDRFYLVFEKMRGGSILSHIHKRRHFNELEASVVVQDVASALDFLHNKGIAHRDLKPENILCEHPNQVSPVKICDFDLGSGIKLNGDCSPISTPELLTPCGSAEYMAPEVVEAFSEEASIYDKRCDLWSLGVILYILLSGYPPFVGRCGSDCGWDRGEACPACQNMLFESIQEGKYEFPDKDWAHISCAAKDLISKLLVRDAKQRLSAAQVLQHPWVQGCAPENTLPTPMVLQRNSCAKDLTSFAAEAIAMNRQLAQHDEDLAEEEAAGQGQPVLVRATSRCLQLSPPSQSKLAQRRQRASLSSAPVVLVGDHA
T1 sequence (Q04771 21-509): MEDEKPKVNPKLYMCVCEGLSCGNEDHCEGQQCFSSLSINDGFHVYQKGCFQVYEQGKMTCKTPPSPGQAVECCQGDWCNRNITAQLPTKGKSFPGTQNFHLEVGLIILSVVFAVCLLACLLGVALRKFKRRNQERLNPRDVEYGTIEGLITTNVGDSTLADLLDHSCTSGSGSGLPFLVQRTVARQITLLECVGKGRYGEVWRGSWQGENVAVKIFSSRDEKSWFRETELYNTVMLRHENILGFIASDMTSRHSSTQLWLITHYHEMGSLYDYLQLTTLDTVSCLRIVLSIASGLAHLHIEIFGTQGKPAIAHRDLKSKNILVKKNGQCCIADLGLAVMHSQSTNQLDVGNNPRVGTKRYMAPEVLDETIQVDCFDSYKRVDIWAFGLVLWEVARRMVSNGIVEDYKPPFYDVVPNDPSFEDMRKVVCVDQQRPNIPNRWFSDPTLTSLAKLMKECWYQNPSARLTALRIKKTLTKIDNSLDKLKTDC
T16 sequence (Q96Q40 whole entry): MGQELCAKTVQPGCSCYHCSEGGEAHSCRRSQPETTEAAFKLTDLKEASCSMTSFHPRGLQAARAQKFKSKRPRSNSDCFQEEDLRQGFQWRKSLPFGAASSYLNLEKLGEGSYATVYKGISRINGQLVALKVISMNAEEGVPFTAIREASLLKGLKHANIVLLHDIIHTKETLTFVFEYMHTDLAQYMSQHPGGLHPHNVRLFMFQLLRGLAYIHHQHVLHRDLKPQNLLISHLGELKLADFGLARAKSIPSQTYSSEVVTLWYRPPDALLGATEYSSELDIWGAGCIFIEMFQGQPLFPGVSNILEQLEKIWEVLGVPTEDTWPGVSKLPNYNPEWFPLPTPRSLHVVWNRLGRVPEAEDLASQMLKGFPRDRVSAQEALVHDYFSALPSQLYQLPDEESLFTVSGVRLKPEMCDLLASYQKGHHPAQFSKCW
T4 sequence (Q9P286 whole entry): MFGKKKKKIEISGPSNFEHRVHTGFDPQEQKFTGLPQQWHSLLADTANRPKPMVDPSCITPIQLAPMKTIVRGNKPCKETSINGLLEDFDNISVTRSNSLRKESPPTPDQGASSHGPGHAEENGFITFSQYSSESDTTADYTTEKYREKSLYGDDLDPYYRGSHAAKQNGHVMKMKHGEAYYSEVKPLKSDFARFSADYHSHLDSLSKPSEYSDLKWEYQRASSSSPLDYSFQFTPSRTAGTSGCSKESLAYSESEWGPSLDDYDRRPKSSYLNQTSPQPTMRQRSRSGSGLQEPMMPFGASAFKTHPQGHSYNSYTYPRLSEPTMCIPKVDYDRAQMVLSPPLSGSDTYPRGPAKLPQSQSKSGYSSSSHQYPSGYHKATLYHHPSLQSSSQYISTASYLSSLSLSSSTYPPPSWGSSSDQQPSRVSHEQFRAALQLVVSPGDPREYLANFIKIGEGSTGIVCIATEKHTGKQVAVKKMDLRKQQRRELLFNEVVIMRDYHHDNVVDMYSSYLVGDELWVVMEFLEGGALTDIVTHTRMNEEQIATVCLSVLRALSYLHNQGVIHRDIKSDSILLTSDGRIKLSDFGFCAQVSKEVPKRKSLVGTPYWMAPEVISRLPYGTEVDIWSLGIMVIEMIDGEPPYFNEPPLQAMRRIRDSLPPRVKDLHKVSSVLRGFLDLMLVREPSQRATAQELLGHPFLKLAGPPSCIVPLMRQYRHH
T8 sequence (P78362 whole entry): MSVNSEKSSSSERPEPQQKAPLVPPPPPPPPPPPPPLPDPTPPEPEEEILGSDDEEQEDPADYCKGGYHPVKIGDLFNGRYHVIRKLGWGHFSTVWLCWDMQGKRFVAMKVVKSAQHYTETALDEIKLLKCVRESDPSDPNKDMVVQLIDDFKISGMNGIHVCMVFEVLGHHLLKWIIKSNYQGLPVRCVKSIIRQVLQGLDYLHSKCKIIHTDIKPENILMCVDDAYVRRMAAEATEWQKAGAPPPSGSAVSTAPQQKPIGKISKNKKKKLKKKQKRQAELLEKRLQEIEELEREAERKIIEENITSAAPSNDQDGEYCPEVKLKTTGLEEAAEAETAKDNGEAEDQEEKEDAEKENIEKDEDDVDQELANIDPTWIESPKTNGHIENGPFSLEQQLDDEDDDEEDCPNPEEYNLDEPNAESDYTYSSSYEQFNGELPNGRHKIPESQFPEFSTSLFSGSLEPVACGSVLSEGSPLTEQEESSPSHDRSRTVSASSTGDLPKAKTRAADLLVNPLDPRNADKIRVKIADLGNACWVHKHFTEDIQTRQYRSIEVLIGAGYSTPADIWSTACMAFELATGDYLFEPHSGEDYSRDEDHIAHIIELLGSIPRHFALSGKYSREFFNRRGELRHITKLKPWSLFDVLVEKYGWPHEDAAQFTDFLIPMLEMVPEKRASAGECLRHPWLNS

N[C@H]1CC[C@H](Nc2cc(-c3cccc(NCc4cccc(F)c4)n3)c(Cl)cn2)CC1 [i-CDK9, N2′-(trans-4-aminocyclohexyl)-5′-chloro-N6-(3-fluorobenzyl)-2,4′-bipyridine-2′,6-diamine]
remaining binding at 1 µM ([1]; 1 µM i-CDK9): 100%
remaining binding at 10 µM ([1]; 10 µM i-CDK9): 100%
% Retention on Solid Support ([2]; 1 µM i-CDK9): 44%
% Retention on Solid Support ([2]; 10 µM i-CDK9): 100%
remaining binding at 1 µM ([3]; 1 µM i-CDK9): 100%
remaining binding at 10 µM ([3]; 10 µM i-CDK9): 82%
remaining binding at 1 µM ([4]; 1 µM i-CDK9): 75%
remaining binding at 10 µM ([4]; 10 µM i-CDK9): 81%
remaining binding at 1 µM ([5]; 1 µM i-CDK9): 86%
remaining binding at 10 µM ([5]; 10 µM i-CDK9): 100%
remaining binding at 1 µM [6]: 100%
remaining binding at 1 µM [7]: 100%
remaining binding at 1 µM ([8]; 1 µM i-CDK9): 57%
remaining binding at 10 µM ([8]; 10 µM i-CDK9): 100%
remaining binding at 1 µM ([9]; 1 µM i-CDK9): 81%
remaining binding at 10 µM ([9]; 10 µM i-CDK9): 73%
remaining binding at 1 µM ([10]; 1 µM i-CDK9): 100%
remaining binding at 10 µM ([10]; 10 µM i-CDK9): 100%
remaining binding at 1 µM ([11]; 1 µM i-CDK9): 98%
remaining binding at 10 µM ([11]; 10 µM i-CDK9): 70%
remaining binding at 1 µM ([12]; 1 µM i-CDK9): 100%
remaining binding at 10 µM ([12]; 10 µM i-CDK9): 84%
remaining binding at 1 µM ([13]; 1 µM i-CDK9): 91%
remaining binding at 10 µM ([13]; 10 µM i-CDK9): 96%
remaining binding at 1 µM ([14]; 1 µM i-CDK9): 92%
remaining binding at 10 µM ([14]; 10 µM i-CDK9): 97%
remaining binding at 1 µM ([15]; 1 µM i-CDK9): 100%
remaining binding at 10 µM ([15]; 10 µM i-CDK9): 100%
remaining binding at 1 µM ([16]; 1 µM i-CDK9): 72%
remaining binding at 10 µM ([16]; 10 µM i-CDK9): 13%
remaining binding at 1 µM [17]: 100%
remaining binding at 1 µM ([18]; 1 µM i-CDK9): 100%
remaining binding at 10 µM ([18]; 10 µM i-CDK9): 99%
% Retention on Solid Support ([19]; 1 µM i-CDK9): 100%
% Retention on Solid Support ([19]; 10 µM i-CDK9): 86%
remaining binding at 1 µM ([20]; 1 µM i-CDK9): 97%
remaining binding at 10 µM ([20]; 10 µM i-CDK9): 85%
remaining binding at 1 µM ([21]; 1 µM i-CDK9): 88%
remaining binding at 10 µM ([21]; 10 µM i-CDK9): 90%
% Retention on Solid Support ([22]; 1 µM i-CDK9): 80%
% Retention on Solid Support ([22]; 10 µM i-CDK9): 79%
remaining binding at 1 µM ([23]; 1 µM i-CDK9): 96%
remaining binding at 10 µM ([23]; 10 µM i-CDK9): 22%
remaining binding at 1 µM ([24]; 1 µM i-CDK9): 100%
remaining binding at 10 µM ([24]; 10 µM i-CDK9): 100%
remaining binding at 1 µM ([25]; 1 µM i-CDK9): 100%
remaining binding at 10 µM ([25]; 10 µM i-CDK9): 100%
